Measurements from patent US12459951B2, “Compounds that interact with RAS superfamily proteins for treatment of cancers, inflammatory diseases, rasopathies, and fibrotic disease” (SHY Therapeutics, LLC, priority 2022, dated 2025).

What was measured:
[1] = tested on: MiaPaca-2 (expressing KRAS G12C mutant); assay: Proliferation Assay (Cell Viability Assay); format: cell-based; conditions: Homo sapiens, MIA PaCa-2; read-out: Proliferation in MiaPaca-2: IC50
In short: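 After 2–4 days' exposure at 37 °C, 5% CO2 to a single 10 μM final concentration or a dilution series (IC50), percent proliferation inhibition was derived from CellTiter 96 Aqueous One viability readings. The medium contained 0.3% DMSO and 10% FBS. KRAS G12C MiaPaca-2 cells were plated at 2000–5000/well the day before.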

[2] = tested on: TNF-alpha; assay: TNF-alpha Quantification Assay (ELISA), LPS-stimulated RAW 264.7; format: cell-based; conditions: Mus musculus, RAW264.7; at 10 μM; read-out: TNFα: % inh.
[3] = tested on: IL6; assay: IL-6 Quantification Assay (ELISA), LPS-stimulated RAW 264.7; format: cell-based; set-up: inhibition: dose or concentration left out as unconfirmed; conditions: Mus musculus, RAW264.7; read-out: IL-6: % inh.
[4] = tested on: MAPK p38 phosphorylation; assay: MAPK p38 Activation Assay (western blot), Panc-1; format: cell-based, human; conditions: at 10 μM, Panc-1 pancreatic cancer cell line; starred symbols = activation
Description: Protocol for MAPK p38 Activation Assay
This assay is referred to as the “MAPK p38 Activation Assay” throughout this application.
Cell lines: Human tumor-derived pancreatic cancer cell line Panc-1 (expressing KRas G12D mutant) was purchased from American Type Culture Collection and grown in complete DMEM-High Glucose medium, supplemented with penicillin (100 U/mL), streptomycin (100 μg/mL), and 10% heat-inactivated FBS at 37° C. in a humidified incubator with 5% CO2.
Method 1: Cells were plated at 350000 cells/well density in a 12-well plate, allowed 3 hours to adhere to the plate, then starved in the appropriate medium in the presence of 0.5% FBS overnight. The small molecules to be tested were added to the cells in the final concentration of 10 μM in the presence of 0.3% DMSO for 6 hours incubation at 37° C. For IC50 value determination, serial dilutions of compounds were added to cells under the same conditions. Next, cells were stimulated with 1.5 ng/ml EGF for 15 minutes then cells were lysed with lysis buffer containing 1% Triton X-100, EDTA, and Halt™ Protease & Phosphatase Inhibitor Cocktail (Thermo Scientific). Protein concentration was assessed by BCA protein assay (Thermo Scientific). Phosphorylation level of MAPK p38 was determined by western blot.
Method 2: Cells were plated at 350000 cells/well density in a 12-well plate in 10% FBS. The next day small molecules to be tested were added to the cells in the final concentration of 10 μM in the presence of 0.3% DMSO for 6 hours incubation at 37° C. For IC50 value determination, serial dilutions of compounds were added to cells under the same conditions. Next, cells were lysed with lysis buffer containing 1% Triton X-100, EDTA, and Halt™ Protease & Phosphatase Inhibitor Cocktail (Thermo Scientific). Protein concentration was assessed by BCA protein assay (Thermo Scientific). Phosphorylation level of MAPK p38 was determined by western blot.
Western blot protocol: Equal amounts of protein (15-50 μg) were separated by SDS-PAGE and transferred to nitrocellulose membranes (Invitrogen by Thermo Fisher Scientific). The membrane was stained with Ponceau S Stain (Boston BioProducts) to verify uniform protein loading. Membranes were blocked with 10% milk and phosphorylation levels of MAPK p38 were assessed by incubating overnight at 4° C. with the following antibody: Phospho-p38 MAPK (Thr180/Tyr182), from Cell Signaling Technology. Then the membranes were incubated with HRP-conjugated secondary antibody (Jackson Immunoresearch, West Grove, PA). Bands were incubated in Amersham ECL Prime Western Blotting Detection Reagent (GE Healthcare) and visualized using the ChemiDoc MP imaging system (Bio-Rad).

IC50 [1]	SMILES	inhibition at 10 µM [2]	inhibition [3]	% inh of MAPK p38 in Panc-1 [4]
> 1 µM	COCC1CCN(c2nc(-c3ccccn3)nn3cc(-c4ccn(C(C)C)n4)c(C)c23)C1 (racemic) [Compound 10, rac 6-(1-Isopropyl-1H-pyrazol-3-yl)-4-(3-(methoxymethyl)pyrrolidin-1-yl)-5-methyl-2-(pyridin-2-yl)pyrrolo[2,1-f][1,2,4]triazine]	0%	25 to 49%	G* (G* = 75-99% activation)
> 1 µM	COC[C@@H]1CC[C@@H]1CNc1nc(-c2ccccn2)nn2cc(-c3ccn(C(C)C)n3)c(C)c12 (racemic) [Compound 11, rac 6-(1-Isopropyl-1H-pyrazol-3-yl)-N-(((1S,2R)-2-(methoxymethyl)cyclobutyl)methyl)-5-methyl-2-(pyridin-2-yl)pyrrolo[2,1-f][1,2,4]triazin-4-amine]	0%	0%	G* (G* = 75-99% activation)
> 1 µM	COC1CCCN(c2nc(-c3ccccn3)nn3cc(-c4ccn(C(C)C)n4)c(C)c23)C1 (racemic) [Compound 12, rac 6-(1-Isopropyl-1H-pyrazol-3-yl)-4-(3-methoxypiperidin-1-yl)-5-methyl-2-(pyridin-2-yl)pyrrolo[2,1-f][1,2,4]triazine]	0%	25 to 49%	H* (H* ≥ 100% activation)
> 1 µM	CO[C@@H]1C[C@H]1Nc1nc(-c2nccn2C)nn2cc(-c3cccnc3)c(-c3ccccc3)c12 (racemic) [Compound 190, N-((1R,2R)-2-Methoxycyclopropyl)-2-(1-methyl-1H-imidazol-2-yl)-5-phenyl-6-(pyridin-3-yl)pyrrolo[2,1-f][1,2,4]triazin-4-amine]	1 to 24%	50 to 74%	E (E = 1-30% inhibition)
> 1 µM	CO[C@H]1CC[C@@H](Nc2nc(-c3nccn3C)nn3cc(-c4cccnc4)c(-c4ccccc4)c23)C1 (racemic) [Compound 193, rac N-((1R,3S)-3-Methoxycyclopentyl)-2-(1-methyl-1H-imidazol-2-yl)-5-phenyl-6-(pyridin-3-yl)pyrrolo[2,1-f][1,2,4]triazin-4-amine]	25 to 49%	75 to 100%	E (E = 1-30% inhibition)
> 1 µM	CO[C@H]1CC[C@H](Nc2nc(-c3nccn3C)nn3cc(-c4cccnc4)c(-c4ccccc4)c23)C1 (racemic) [Compound 194, rac N-((1S,3S)-3-Methoxycyclopentyl)-2-(1-methyl-1H-imidazol-2-yl)-5-phenyl-6-(pyridin-3-yl)pyrrolo[2,1-f][1,2,4]triazin-4-amine]	50 to 74%	75 to 100%	E (E = 1-30% inhibition)
> 1 µM	CO[C@@H]1C[C@H]1Nc1nc(-c2nccn2C)nn2cc(-c3ccncc3)c(-c3ccccc3)c12 (racemic) [Compound 197, rac N-((1R,2R)-2-methoxycyclopropyl)-2-(1-methyl-1H-imidazol-2-yl)-5-phenyl-6-(pyridin-4-yl)pyrrolo[2,1-f][1,2,4]triazin-4-amine]	25 to 49%	50 to 74%	F (F = 31-74% inhibition)
> 1 µM	CO[C@H]1CC[C@@H](Nc2nc(-c3nccn3C)nn3cc(-c4ccncc4)c(-c4ccccc4)c23)C1 (racemic) [Compound 200, rac N-((1R,3S)-3-Methoxycyclopentyl)-2-(1-methyl-1H-imidazol-2-yl)-5-phenyl-6-(pyridin-4-yl)pyrrolo[2,1-f][1,2,4]triazin-4-amine]	1 to 24%	1 to 24%	E (E = 1-30% inhibition)
> 1 µM	CO[C@H]1CC[C@H](Nc2nc(-c3nccn3C)nn3cc(-c4ccncc4)c(-c4ccccc4)c23)C1 (racemic) [Compound 201, rac N-((1S,3S)-3-Methoxycyclopentyl)-2-(1-methyl-1H-imidazol-2-yl)-5-phenyl-6-(pyridin-4-yl)pyrrolo[2,1-f][1,2,4]triazin-4-amine]	50 to 74%	75 to 100%	E (E = 1-30% inhibition)
0.15 to 0.5 µM	COc1cc(Nc2nc(-c3ccccn3)nn3cc(-c4ccn(C(C)C)n4)c(C)c23)ncn1 [Compound 13, 6-(1-Isopropyl-1H-pyrazol-3-yl)-N-(6-methoxypyrimidin-4-yl)-5-methyl-2-(pyridin-2-yl)pyrrolo[2,1-f][1,2,4]triazin-4-amine]	0%	75 to 100%	H* (H* ≥ 100% activation)
> 1 µM	COc1cccc(Nc2nc(-c3ccccn3)nn3cc(-c4ccn(C(C)C)n4)c(C)c23)n1 [Compound 14, 6-(1-Isopropyl-1H-pyrazol-3-yl)-N-(6-methoxypyridin-2-yl)-5-methyl-2-(pyridin-2-yl)pyrrolo[2,1-f][1,2,4]triazin-4-amine]	0%	50 to 74%	H* (H* ≥ 100% activation)
> 1 µM	COc1cccc(-c2cn3nc(-c4nccn4C)nc(O)c3c2C)c1Cl [Compound 15, 6-(2-Chloro-3-methoxyphenyl)-5-methyl-2-(1-methyl-1H-imidazol-2-yl)pyrrolo[2,1-f][1,2,4]triazin-4-ol]	0%	50 to 74%	H* (H* ≥ 100% activation)
> 1 µM	COCCNc1nc(-c2nccn2C)nn2cc(-c3cccc(OC)c3Cl)c(C)c12 [Compound 16, 6-(2-Chloro-3-methoxyphenyl)-N-(2-methoxyethyl)-5-methyl-2-(1-methyl-1H-imidazol-2-yl)pyrrolo[2,1-f][1,2,4]triazin-4-amine]	0%	50 to 74%	H* (H* ≥ 100% activation)
> 1 µM	COc1ccnc(Nc2nc(-c3nccn3C)nn3cc(-c4ccn(CCN)n4)c(C)c23)c1 [Compound 187, 6-(1-(2-Aminoethyl)-1H-pyrazol-3-yl)-N-(4-methoxypyridin-2-yl)-5-methyl-2-(1-methyl-1H-imidazol-2-yl)pyrrolo[2,1-f][1,2,4]triazin-4-amine]	1 to 24%	50 to 74%	E* (E* = 1-30% activation)
> 1 µM	COc1ccnc(Nc2nc(-c3nccn3CCN)nn3cc(-c4ccn(C)n4)c(C)c23)c1 [Compound 188, 2-(1-(2-Aminoethyl)-1H-imidazol-2-yl)-N-(4-methoxypyridin-2-yl)-5-methyl-6-(1-methyl-1H-pyrazol-3-yl)pyrrolo[2,1-f][1,2,4]triazin-4-amine]	0%	50 to 74%	E (E = 1-30% inhibition)
> 1 µM	CO[C@H]1C[C@@H](Nc2nc(-c3nccn3C)nn3cc(-c4cccnc4)c(-c4ccccc4)c23)C1 [Compound 191, N-((1s,3s)-3-Methoxycyclobutyl)-2-(1-methyl-1H-imidazol-2-yl)-5-phenyl-6-(pyridin-3-yl)pyrrolo[2,1-f][1,2,4]triazin-4-amine]	1 to 24%	50 to 74%	E* (E* = 1-30% activation)
> 1 µM	CO[C@H]1C[C@H](Nc2nc(-c3nccn3C)nn3cc(-c4cccc(OCCN)c4)c(-c4ccccc4)c23)C1 [Compound 205, 6-(3-(2-Aminoethoxy)phenyl)-N-((1r,3r)-3-methoxycyclobutyl)-2-(1-methyl-1H-imidazol-2-yl)-5-phenylpyrrolo[2,1-f][1,2,4]triazin-4-amine]	–	–	G (G = 75-99% inhibition)
